Laboratory results from ChEMBL document CHEMBL4184185, “Dihydrobenzisoxazole-4-one compounds are novel selective inhibitors of aldosterone synthase (CYP11B2) with in vivo activity” (Bioorg Med Chem Lett, 2018).

Assays:
Cynomolgus monkey [1] = assay: In vivo inhibition of ACTH-stimulated aldosterone level in cynomolgus monkey assessed as change in plasma aldosterone AUC (0 to 3 hrs) at 1 mg/kg, iv administered 5 mins before ACTH challenge relative to control; assay type: functional, Macaca fascicularis; set-up: scale not given: the % may be the effect or the level left
Aromatase [2] = target: T1, Aromatase (Homo sapiens, UniProt P11511); assay: Inhibition of CYP19A1 (unknown origin) at 20 uM
T1 sequence (P11511 whole entry): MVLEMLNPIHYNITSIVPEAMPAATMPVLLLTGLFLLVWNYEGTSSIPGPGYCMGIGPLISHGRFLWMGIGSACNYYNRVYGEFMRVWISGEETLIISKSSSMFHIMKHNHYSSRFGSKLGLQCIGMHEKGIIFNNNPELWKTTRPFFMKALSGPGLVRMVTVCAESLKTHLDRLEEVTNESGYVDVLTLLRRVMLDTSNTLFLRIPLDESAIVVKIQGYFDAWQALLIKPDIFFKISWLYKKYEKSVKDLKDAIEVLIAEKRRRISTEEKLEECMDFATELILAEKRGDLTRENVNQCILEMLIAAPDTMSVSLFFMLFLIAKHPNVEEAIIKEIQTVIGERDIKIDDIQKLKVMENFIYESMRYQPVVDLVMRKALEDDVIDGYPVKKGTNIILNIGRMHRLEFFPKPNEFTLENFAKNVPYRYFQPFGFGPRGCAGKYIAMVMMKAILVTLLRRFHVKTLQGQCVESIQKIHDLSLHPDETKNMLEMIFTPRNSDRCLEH

Aromatase [3] = target: T1, Aromatase; assay: Inhibition of CYP19A1 (unknown origin)
[4] = Unbound plasma concentration in ACTH-stimulated cynomolgus monkey at 0.1 mg/kg, iv administered 5 mins before ACTH challenge measured at 15 mins post dose; assay type: ADME, organism-based, Macaca fascicularis; conditions: in vivo, 0.25 h
[5] = Plasma concentration in ACTH-stimulated cynomolgus monkey at 0.1 mg/kg, iv administered 5 mins before ACTH challenge measured after 3 hrs; assay type: ADME, organism-based, Macaca fascicularis
[6] = Oral bioavailability in Wistar Han rat; assay type: ADME, organism-based; conditions: in vivo
Cynomolgus monkey [7] = assay: In vivo inhibition of ACTH-stimulated aldosterone level in cynomolgus monkey assessed as change in plasma aldosterone AUC (0 to 3 hrs) at 8 mg/kg, iv administered 5 mins before ACTH challenge relative to control; assay type: functional, Macaca fascicularis; set-up: scale not given: the % may be the effect or the level left
[8] = Clearance in Beagle dog hepatocytes relative to hepatic blood flow; assay type: ADME, cell-based, Canis lupus familiaris, Hepatocyte; conditions: read-out: CLH
[9] = Plasma concentration in ACTH-stimulated cynomolgus monkey at 0.1 mg/kg, iv administered 5 mins before ACTH challenge measured at 15 mins post dose; assay type: ADME, organism-based, Macaca fascicularis
[10] = Unbound plasma concentration in ACTH-stimulated cynomolgus monkey at 0.1 mg/kg, iv administered 5 mins before ACTH challenge measured after 3 hrs; assay type: ADME, organism-based, Macaca fascicularis; conditions: in vivo
Cytochrome P450 3A4 = Cytochrome P450 3A4 (Homo sapiens, UniProt P08684); assay: Inhibition of CYP3A4 (unknown origin) at 30 uM; assay type: ADME
[11] = Clearance in human liver microsomes relative to hepatic blood flow; assay type: ADME, microsome; conditions: read-out: CLH
[12] = Inhibition of cynomolgus monkey adrenal mitochondrial CYP11B1 using 11-deoxycortisol as substrate after 90 mins in presence of NADPH by mass spectrometric analysis
Cytochrome P450 2C9 = Cytochrome P450 2C9 (Homo sapiens, UniProt P11712); assay: Inhibition of CYP2C9 (unknown origin) at 30 uM; assay type: ADME
[13] = Oral bioavailability in Beagle dog; assay type: ADME, organism-based, Canis lupus familiaris; conditions: in vivo
[14] = Clearance in human hepatocytes relative to hepatic blood flow; assay type: ADME, cell-based, Hepatocyte; conditions: read-out: CLH
Rattus norvegicus = assay: Clearance in iv dosed Wistar Han rat relative to hepatic blood flow; assay type: ADME, organism-based; conditions: in vivo
[15] = Oral bioavailability in cynomolgus monkey; assay type: ADME, organism-based, Macaca fascicularis; conditions: in vivo
[16] = Unbound plasma concentration in ACTH-stimulated cynomolgus monkey at 8 mg/kg, iv administered 5 mins before ACTH challenge measured at 15 mins post dose; assay type: ADME, organism-based, Macaca fascicularis; conditions: in vivo, 0.25 h
Canis familiaris = assay: Clearance in iv dosed Beagle dog relative to hepatic blood flow; assay type: ADME, organism-based, Canis lupus familiaris; conditions: in vivo
Cynomolgus monkey [17] = assay: Effect on ACTH-stimulated plasma cortisol level in cynomolgus monkey up to 8 mg/kg, iv administered 5 mins before ACTH challenge measured after 3 hrs; assay type: ADME, organism-based, Macaca fascicularis; conditions: in vivo
Macaca fascicularis = organism: Macaca fascicularis; assay: Selectivity index, ratio of IC50 for cynomolgus monkey adrenal mitochondrial CYP11B1 to IC50 for cynomolgus monkey adrenal mitochondrial CYP11B2
Cynomolgus monkey [18] = assay: In vivo inhibition of ACTH-stimulated aldosterone level in cynomolgus monkey assessed as change in plasma aldosterone AUC (0 to 3 hrs) at 0.1 mg/kg, iv administered 5 mins before ACTH challenge relative to control; assay type: functional, Macaca fascicularis; set-up: scale not given: the % may be the effect or the level left
[19] = Plasma concentration in ACTH-stimulated cynomolgus monkey at 8 mg/kg, iv administered 5 mins before ACTH challenge measured at 15 mins post dose; assay type: ADME, organism-based, Macaca fascicularis
[20] = Clearance in cynomolgus monkey hepatocytes relative to hepatic blood flow; assay type: ADME, cell-based, Macaca fascicularis, Hepatocyte; conditions: read-out: CLH
Cytochrome P450 2D6 = Cytochrome P450 2D6 (Homo sapiens, UniProt P10635); assay: Inhibition of CYP2D6 (unknown origin) at 30 uM; assay type: ADME
Cynomolgus monkey [21] = assay: Clearance in iv dosed cynomolgus monkey relative to hepatic blood flow; assay type: ADME, organism-based, Macaca fascicularis; conditions: in vivo
[22] = target: T2, Steroid 17-alpha-hydroxylase/17,20 lyase (Homo sapiens, UniProt P05093); assay: Inhibition of CYP17A1 (unknown origin); assay type: ADME
T2 sequence (P05093 whole entry): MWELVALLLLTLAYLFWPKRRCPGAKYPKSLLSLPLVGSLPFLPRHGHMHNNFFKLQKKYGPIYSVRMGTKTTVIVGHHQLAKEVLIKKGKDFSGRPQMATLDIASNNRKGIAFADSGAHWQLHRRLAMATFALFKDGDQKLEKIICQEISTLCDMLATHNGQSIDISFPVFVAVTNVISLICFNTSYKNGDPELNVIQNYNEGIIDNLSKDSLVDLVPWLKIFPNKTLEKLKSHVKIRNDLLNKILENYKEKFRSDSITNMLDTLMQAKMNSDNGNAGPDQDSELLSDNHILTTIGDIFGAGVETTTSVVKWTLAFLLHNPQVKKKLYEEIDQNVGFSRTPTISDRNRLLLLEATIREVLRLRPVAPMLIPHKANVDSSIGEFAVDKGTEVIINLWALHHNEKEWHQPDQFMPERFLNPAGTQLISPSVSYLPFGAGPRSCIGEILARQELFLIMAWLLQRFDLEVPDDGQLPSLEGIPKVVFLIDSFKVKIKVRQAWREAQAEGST

[23] = Clearance in Wistar Han rat hepatocytes relative to hepatic blood flow; assay type: ADME, cell-based, Hepatocyte; conditions: read-out: CLH
[24] = Inhibition of cynomolgus monkey adrenal mitochondrial CYP11B2 using corticosterone as substrate after 60 mins in presence of NADPH by mass spectrometric analysis
Cynomolgus monkey [25] = assay: In vivo inhibition of ACTH-stimulated aldosterone level in iv dosed cynomolgus monkey assessed as change in plasma aldosterone AUC (0 to 3 hrs) administered 5 mins before ACTH challenge; assay type: functional, organism-based; conditions: Macaca fascicularis

Chain of Cytochrome P450 3A4 (P08684 whole entry): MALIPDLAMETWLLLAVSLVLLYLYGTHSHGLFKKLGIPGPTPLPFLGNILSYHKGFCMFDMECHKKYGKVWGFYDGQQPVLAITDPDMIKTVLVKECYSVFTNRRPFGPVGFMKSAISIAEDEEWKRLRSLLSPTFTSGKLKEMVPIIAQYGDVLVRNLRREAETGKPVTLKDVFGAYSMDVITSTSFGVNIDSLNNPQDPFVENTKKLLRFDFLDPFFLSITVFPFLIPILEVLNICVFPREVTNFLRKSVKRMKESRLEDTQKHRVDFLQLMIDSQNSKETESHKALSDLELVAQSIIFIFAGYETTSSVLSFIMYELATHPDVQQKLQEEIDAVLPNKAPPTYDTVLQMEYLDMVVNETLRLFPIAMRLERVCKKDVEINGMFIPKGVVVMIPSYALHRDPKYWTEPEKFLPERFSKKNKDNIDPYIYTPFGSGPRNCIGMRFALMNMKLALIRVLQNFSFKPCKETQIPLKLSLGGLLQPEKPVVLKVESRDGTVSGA
Chain of Cytochrome P450 2C9 (P11712 whole entry): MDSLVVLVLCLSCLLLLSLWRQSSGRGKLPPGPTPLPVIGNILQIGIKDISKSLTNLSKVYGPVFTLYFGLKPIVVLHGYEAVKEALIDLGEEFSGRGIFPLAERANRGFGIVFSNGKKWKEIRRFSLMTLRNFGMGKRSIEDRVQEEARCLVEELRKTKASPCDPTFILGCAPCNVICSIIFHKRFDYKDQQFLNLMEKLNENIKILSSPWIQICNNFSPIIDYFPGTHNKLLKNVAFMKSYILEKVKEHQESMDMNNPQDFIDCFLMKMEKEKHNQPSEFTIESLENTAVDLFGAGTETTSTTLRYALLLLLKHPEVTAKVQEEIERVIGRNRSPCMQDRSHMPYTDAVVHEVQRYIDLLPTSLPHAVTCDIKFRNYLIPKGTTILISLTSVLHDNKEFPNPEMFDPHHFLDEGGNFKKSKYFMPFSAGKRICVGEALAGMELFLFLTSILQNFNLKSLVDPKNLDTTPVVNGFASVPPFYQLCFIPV
Chain of Cytochrome P450 2D6 (P10635 whole entry): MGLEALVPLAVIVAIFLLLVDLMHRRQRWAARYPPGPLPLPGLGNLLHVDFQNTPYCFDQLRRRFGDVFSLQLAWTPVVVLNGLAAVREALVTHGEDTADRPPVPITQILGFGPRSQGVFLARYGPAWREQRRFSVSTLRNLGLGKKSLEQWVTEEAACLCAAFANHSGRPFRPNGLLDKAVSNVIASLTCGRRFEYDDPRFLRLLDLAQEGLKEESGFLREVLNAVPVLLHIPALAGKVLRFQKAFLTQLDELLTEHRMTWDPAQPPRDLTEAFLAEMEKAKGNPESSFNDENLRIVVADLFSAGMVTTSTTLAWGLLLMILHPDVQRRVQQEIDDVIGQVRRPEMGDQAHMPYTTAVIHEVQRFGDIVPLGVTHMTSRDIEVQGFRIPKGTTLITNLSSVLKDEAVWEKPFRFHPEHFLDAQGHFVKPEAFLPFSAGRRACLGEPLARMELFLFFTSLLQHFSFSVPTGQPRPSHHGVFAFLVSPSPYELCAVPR

inhibition (INH) (Aromatase [2]): Not Active
IC50 (Aromatase [3]): > 31.6 µM
Cp(f) [4]: 93 nM
concentration at 3 h [5]: 78 nM
bioavailability [6]: 14%
hepatic extraction ratio [8]: < 0.3
concentration at 0.25 h [9]: 160 nM
Cp(f) [10]: 46 nM
inhibition (INH) (Cytochrome P450 3A4): Not Active
hepatic extraction ratio [11]: < 0.24
pIC50 [12]: 5
inhibition (INH) (Cytochrome P450 2C9): Not Active
bioavailability [13]: 91%
hepatic extraction ratio [14]: < 0.21
CL (Rattus norvegicus): 24%
bioavailability [15]: 91%
Cp(f) [16]: 5700 nM
CL (Canis familiaris): 9.7%
Ratio IC50 (Macaca fascicularis): 100
concentration at 0.25 h [19]: 9600 nM
hepatic extraction ratio [20]: 0.34
inhibition (INH) (Cytochrome P450 2D6): Not Active
CL (Cynomolgus monkey [21]): 32%
IC50 [22]: > 31.6 µM
hepatic extraction ratio [23]: 0.52
IC50 [24]: 0.092 µM
pIC50 [24]: 7
Structure (SMILES): CN(CCO)C(=O)c1ccc(Cc2onc3c2C(=O)CC(C)(C)C3)cc1
Activity (Cynomolgus monkey [1]): -87.9%
Activity (Cynomolgus monkey [7]): -92.3%
Activity (Cynomolgus monkey [17]): Non-Toxic
Activity (Cynomolgus monkey [18]): -62.4%
inhibition (Cynomolgus monkey [25]): Dose-dependent effect
